How the values were obtained:
[1] = target: T1, bovine mitochondrial complex I (proton-translocating NADH:ubiquinone oxidoreductase) (Bos taurus, UniProt P03887+P17694+P42026); experiment: rate constant of D-to-A activation from lag phase of NADH oxidation, SMP; assay type: biochemical; conditions: D-form of complex I; pH 7.0, SET buffer, no alkali cations; control without EIPA 1.00 ± 0.04 min^-1; 165 μM NADH
T1 construct: gene NDUFS2; with NADH-ubiquinone oxidoreductase chain 3; NADH dehydrogenase [ubiquinone]; 1 alpha subcomplex subunit 9, mitochondrial; NADH-ubiquinone oxidoreductase chain 2; NADH-ubiquinone oxidoreductase chain 4; NADH-ubiquinone oxidoreductase chain 4L; NADH-ubiquinone oxidoreductase chain 5; NADH-ubiquinone oxidoreductase chain 6; NADH-ubiquinone oxidoreductase 75 kDa subunit, mitochondrial; NADH dehydrogenase [ubiquinone] flavoprotein 1, mitochondrial; NADH dehydrogenase [ubiquinone] flavoprotein 2, mitochondrial; NADH dehydrogenase [ubiquinone] iron-sulfur protein 3, mitochondrial; NADH dehydrogenase [ubiquinone] iron-sulfur protein 8, mitochondrial
T1 sequence (P17694 34-463): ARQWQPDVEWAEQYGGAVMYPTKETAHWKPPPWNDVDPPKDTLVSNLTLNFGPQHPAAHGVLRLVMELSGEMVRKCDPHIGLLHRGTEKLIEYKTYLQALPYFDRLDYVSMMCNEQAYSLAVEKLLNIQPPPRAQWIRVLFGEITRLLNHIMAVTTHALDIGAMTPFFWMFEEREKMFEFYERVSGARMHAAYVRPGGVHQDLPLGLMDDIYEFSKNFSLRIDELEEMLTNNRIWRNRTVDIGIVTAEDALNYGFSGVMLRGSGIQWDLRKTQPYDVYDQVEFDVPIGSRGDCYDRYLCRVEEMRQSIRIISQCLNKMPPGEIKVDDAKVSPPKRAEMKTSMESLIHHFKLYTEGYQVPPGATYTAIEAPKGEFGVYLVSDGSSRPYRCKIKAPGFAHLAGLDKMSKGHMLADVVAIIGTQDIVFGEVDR
T1 sequence (P42026 38-216): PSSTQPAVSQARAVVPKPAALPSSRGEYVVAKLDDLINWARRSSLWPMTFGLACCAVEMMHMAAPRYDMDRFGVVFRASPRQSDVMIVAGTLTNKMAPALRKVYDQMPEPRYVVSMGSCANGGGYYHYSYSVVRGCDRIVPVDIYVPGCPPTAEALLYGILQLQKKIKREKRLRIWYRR
T1 sequence (P03887 whole entry): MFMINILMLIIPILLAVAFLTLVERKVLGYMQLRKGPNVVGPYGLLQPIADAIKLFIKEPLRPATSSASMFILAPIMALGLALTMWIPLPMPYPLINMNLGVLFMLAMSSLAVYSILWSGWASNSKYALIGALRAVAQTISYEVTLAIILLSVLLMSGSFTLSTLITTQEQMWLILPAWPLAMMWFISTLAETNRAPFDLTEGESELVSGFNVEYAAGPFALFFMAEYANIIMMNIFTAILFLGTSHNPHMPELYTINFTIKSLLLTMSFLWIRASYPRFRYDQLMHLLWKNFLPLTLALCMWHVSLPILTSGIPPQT
T1 sequence (P03898 whole entry partner): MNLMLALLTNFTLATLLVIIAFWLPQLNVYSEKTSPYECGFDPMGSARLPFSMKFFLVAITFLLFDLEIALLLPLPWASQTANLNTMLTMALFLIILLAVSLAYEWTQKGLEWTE
T1 sequence (P34943 36-380 partner): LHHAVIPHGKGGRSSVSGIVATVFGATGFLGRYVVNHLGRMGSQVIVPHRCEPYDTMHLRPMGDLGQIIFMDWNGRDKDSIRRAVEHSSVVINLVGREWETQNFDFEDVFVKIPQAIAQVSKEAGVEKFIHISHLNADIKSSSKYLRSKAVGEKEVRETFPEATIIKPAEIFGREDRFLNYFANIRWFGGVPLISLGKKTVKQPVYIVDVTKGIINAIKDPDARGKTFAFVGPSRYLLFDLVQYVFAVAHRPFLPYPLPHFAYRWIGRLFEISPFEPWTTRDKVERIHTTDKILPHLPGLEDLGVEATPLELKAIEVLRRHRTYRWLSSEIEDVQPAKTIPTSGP

[2] = target: T1, bovine mitochondrial complex I (proton-translocating NADH:ubiquinone oxidoreductase); experiment: NADH:Q1 oxidoreductase inhibition, SMP, NADH absorbance at […] nm; assay type: biochemical; conditions: neutral pH (7.0; Figure 7 caption gives NADH-oxidase reaction, A-form); SET buffer, 25 °C, 165 μM NADH; 5-7 min preincubation

SMILES: CCN(c1nc(N)c(C(=O)NC(=N)N)nc1Cl)C(C)C [EIPA]
- kD → A at 20 μM EIPA [1]: 0.22 ± 0.04 min^− 1
- IC50 [2]: ~40 µM
